# Measured values as given in ChEMBL document CHEMBL1145679, “Perhydrogenation of tabersonine, ans Aspidiosperma indole alkaloid” (J Nat Prod, 1997).
# Calls of active or inactive are those of the source. The rule behind the calls is not given here.
# Legend:
# [1] = Displacement of radioligand from rat sodium channel batrachotoxin binding site by liquid scintillation spectrometry
# [2] = biological target: T1, 5-hydroxytryptamine receptor 1A (Homo sapiens, UniProt P08908); assay: Displacement of radioligand from 5HT1A receptor by liquid scintillation spectrometry
# T1 sequence (P08908 whole entry): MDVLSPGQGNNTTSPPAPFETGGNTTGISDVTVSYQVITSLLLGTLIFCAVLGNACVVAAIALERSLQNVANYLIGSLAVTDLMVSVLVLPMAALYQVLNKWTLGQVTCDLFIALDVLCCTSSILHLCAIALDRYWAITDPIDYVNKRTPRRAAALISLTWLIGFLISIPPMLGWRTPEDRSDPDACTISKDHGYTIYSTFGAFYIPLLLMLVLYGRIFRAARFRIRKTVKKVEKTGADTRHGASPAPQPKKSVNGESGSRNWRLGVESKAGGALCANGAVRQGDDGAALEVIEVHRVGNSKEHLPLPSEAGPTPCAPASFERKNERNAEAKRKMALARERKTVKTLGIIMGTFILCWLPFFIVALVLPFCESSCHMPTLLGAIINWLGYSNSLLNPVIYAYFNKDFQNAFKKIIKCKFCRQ
# [3] = biological target: T2, Glucocorticoid receptor (Homo sapiens) (UniProt P04150); assay: Displacement of radioligand from glucocorticoid receptor by liquid scintillation spectrometry
# T2 sequence (whole entry): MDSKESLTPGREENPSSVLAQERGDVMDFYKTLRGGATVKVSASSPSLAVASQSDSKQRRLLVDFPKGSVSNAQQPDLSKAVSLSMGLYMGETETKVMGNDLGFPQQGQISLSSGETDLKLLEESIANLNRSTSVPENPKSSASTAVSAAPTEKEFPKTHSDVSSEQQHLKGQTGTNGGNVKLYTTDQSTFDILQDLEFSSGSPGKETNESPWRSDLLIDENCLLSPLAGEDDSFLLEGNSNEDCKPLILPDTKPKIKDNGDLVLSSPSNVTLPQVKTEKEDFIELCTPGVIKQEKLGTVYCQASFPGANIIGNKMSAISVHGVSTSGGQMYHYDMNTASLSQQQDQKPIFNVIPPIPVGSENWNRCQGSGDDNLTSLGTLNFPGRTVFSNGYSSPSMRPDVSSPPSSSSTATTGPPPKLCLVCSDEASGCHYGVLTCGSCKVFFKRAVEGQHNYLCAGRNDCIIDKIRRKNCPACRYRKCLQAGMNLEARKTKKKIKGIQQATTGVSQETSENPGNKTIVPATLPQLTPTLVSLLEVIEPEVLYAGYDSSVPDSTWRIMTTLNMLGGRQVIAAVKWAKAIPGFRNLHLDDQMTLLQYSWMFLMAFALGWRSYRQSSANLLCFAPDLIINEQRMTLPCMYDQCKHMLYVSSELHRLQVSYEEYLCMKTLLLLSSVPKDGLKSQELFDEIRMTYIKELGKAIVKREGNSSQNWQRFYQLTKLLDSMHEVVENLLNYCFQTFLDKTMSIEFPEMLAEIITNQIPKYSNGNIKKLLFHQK
# [4] = Displacement of radioligand from calcium channel by liquid scintillation spectrometry
# [5] = Displacement of radioligand from GABAA receptor by liquid scintillation spectrometry
# [6] = biological target: T3, 5-hydroxytryptamine receptor 3A (Homo sapiens, UniProt P46098); assay: Displacement of radioligand from 5HT3 receptor by liquid scintillation spectrometry
# T3 sequence (P46098 whole entry): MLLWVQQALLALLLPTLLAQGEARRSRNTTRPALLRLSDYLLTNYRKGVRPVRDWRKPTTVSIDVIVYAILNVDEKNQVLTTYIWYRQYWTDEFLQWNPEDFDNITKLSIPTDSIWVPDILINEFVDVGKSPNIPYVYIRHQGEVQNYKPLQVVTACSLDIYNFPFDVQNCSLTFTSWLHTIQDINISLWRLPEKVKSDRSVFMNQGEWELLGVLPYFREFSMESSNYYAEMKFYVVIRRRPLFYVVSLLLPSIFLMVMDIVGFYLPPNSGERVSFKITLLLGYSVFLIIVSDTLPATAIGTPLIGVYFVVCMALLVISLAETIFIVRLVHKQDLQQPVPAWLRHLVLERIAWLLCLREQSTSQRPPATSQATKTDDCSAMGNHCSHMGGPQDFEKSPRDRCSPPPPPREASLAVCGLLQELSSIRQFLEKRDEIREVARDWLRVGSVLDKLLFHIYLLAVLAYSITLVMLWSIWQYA
# [7] = Displacement of radioligand from GABAB receptor by liquid scintillation spectrometry
# [8] = biological target: 5-hydroxytryptamine receptor 2A (Homo sapiens, UniProt P28223); assay: Displacement of radioligand from 5HT2 receptor by liquid scintillation spectrometry
# 5-hydroxytryptamine receptor 2A, sequence (P28223 whole entry): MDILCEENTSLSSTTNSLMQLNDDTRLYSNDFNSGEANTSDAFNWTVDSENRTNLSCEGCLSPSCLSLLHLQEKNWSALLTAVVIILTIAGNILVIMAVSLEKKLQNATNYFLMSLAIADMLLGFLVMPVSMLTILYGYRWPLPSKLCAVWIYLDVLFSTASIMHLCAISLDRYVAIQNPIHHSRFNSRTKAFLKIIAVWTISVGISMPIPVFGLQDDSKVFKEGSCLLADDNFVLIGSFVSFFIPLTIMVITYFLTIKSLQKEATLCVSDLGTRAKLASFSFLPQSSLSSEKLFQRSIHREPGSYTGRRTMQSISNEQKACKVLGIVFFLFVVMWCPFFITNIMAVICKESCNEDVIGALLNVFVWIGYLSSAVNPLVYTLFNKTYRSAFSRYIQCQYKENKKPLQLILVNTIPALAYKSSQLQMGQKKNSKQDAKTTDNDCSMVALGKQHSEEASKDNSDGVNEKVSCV
# [9] = biological target: D(1A) dopamine receptor (Homo sapiens) (UniProt P21728); assay: Displacement of radioligand from dopamine D1 receptor by liquid scintillation spectrometry
# D(1A) dopamine receptor (Homo sapiens), sequence (P21728 whole entry): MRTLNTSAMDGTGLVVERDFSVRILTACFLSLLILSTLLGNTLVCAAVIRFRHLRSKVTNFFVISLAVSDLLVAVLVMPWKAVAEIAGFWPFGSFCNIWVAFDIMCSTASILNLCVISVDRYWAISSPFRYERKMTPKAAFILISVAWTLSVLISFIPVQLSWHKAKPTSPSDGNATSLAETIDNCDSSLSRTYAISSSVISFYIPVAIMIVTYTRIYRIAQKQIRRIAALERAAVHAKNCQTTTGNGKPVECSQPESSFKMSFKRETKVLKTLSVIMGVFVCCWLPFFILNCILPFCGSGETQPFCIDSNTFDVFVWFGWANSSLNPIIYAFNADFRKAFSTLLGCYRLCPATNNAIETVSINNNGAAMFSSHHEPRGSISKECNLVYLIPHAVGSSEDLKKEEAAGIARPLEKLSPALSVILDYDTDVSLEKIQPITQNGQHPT
# [10] = Displacement of radioligand from potassium channel by liquid scintillation spectrometry
# [11] = biological target: D(2) dopamine receptor (Homo sapiens) (UniProt P14416); assay: Displacement of radioligand from dopamine D2 receptor by liquid scintillation spectrometry
# D(2) dopamine receptor (Homo sapiens), sequence (P14416 whole entry): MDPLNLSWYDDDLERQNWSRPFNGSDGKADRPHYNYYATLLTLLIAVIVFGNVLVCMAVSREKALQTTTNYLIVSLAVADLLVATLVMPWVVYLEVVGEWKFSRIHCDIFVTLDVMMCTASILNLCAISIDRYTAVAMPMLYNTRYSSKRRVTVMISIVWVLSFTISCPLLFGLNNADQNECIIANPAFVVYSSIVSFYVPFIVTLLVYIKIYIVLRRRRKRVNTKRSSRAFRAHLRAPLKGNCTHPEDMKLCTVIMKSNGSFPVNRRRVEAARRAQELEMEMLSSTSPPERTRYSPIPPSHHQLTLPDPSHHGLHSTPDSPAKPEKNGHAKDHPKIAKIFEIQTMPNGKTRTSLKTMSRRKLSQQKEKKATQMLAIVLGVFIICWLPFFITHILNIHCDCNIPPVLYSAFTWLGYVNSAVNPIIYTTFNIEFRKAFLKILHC
# [12] = biological target: T4, Adrenergic receptor alpha-2 (Rattus norvegicus, UniProt P22086+P19328+P22909); assay: Displacement of radioligand from rat alpha2 adrenergic receptor by liquid scintillation spectrometry
# T4 sequence (P22086 whole entry): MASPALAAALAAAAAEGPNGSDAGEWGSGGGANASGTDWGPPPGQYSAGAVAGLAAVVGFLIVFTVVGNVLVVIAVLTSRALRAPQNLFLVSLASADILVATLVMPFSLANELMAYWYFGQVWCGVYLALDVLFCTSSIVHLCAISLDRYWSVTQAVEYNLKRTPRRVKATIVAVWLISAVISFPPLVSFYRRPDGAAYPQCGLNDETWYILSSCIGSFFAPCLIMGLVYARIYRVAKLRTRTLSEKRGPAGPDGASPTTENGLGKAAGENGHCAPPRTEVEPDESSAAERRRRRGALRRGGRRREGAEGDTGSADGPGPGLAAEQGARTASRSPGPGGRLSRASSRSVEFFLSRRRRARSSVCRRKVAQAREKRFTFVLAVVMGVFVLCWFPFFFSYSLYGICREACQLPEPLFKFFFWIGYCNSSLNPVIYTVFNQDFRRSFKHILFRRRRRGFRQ
# T4 sequence (P19328 whole entry): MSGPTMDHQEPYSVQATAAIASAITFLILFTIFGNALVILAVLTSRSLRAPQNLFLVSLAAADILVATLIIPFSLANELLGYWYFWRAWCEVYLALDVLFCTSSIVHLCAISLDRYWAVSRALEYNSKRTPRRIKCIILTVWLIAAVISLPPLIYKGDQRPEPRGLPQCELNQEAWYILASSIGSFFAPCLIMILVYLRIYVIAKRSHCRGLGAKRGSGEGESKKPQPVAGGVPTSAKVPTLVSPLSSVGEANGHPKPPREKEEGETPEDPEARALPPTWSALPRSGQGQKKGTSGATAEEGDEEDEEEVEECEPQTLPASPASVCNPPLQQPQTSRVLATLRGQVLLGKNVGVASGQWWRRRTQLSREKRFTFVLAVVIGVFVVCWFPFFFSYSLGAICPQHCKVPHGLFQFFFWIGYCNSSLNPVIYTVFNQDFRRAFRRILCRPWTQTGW
# T4 sequence (P22909 whole entry): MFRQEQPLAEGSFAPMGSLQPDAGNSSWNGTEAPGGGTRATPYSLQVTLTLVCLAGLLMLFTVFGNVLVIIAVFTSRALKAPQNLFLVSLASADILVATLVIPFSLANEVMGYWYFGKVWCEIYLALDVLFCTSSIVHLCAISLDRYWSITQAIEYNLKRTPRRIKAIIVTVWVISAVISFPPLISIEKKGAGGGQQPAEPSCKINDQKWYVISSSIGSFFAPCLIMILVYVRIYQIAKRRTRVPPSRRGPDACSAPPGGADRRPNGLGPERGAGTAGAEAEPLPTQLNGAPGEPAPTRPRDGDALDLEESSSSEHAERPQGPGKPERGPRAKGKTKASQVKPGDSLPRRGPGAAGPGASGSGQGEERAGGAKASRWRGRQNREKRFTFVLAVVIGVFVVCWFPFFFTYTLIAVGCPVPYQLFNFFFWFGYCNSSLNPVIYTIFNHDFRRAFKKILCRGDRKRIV
# [13] = biological target: T5, Adrenergic receptor alpha-1 (Rattus norvegicus, UniProt P15823+P23944+P43140); assay: Displacement of radioligand from rat alpha1 adrenergic receptor by liquid scintillation spectrometry
# T5 sequence (P15823 whole entry): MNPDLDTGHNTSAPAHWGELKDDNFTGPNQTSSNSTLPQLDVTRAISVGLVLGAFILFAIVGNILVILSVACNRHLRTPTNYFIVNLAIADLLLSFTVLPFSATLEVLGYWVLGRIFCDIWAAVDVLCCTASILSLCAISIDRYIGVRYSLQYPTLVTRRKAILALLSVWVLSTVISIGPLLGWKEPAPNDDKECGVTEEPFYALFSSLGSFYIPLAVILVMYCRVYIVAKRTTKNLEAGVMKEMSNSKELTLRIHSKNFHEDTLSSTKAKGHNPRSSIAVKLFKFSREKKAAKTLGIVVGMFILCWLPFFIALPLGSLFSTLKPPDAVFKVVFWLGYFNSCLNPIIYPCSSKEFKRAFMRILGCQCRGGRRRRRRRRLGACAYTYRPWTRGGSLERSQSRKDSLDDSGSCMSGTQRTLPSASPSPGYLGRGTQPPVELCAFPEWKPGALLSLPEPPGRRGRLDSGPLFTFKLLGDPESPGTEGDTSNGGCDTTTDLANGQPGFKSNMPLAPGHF
# T5 sequence (P23944 whole entry): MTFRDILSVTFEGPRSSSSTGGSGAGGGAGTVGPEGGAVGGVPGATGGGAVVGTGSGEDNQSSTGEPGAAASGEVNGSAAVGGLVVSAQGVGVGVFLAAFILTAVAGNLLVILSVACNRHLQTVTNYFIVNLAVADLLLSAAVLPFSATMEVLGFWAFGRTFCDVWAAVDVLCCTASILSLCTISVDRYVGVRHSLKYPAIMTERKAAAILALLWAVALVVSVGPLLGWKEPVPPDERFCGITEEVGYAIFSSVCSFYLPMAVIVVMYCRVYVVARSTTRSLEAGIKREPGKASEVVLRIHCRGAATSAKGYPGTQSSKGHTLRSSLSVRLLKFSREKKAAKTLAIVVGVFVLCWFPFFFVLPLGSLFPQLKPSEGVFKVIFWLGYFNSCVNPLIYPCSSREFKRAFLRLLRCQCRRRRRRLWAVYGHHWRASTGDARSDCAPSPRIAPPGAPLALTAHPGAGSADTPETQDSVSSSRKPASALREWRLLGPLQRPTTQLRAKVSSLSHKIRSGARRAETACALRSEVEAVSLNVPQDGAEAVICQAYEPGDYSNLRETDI
# T5 sequence (P43140 whole entry): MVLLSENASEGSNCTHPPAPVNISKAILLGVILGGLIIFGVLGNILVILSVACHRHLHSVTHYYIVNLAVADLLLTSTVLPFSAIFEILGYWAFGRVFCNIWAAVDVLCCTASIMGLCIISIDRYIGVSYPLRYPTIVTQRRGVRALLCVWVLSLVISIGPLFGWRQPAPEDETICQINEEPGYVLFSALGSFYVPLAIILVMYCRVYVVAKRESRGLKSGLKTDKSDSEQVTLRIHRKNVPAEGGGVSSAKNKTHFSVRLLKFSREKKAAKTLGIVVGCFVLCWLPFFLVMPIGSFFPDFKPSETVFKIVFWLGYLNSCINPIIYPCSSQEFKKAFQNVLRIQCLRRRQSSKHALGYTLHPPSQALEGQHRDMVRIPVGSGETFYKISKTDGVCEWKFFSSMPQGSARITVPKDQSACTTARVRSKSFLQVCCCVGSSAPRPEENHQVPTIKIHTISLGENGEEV
# [14] = Displacement of radioligand from muscarinic receptor by liquid scintillation spectrometry
# [15] = Displacement of radioligand from NMDA receptor by liquid scintillation spectrometry
# [16] = Displacement of radioligand from AMPA receptor by liquid scintillation spectrometry
# [17] = Displacement of radioligand from glycine receptor by liquid scintillation spectrometry
Compound,Ki [1] [µM],IC50 [2] [µM],Activity [3],Activity [4],Activity [5],IC50 [6] [µM],Activity [7],IC50 [8] [µM],Activity [9],Activity [10],Activity [11],Ki [12] [µM],Ki [13] [µM],Activity [14],Activity [15],Activity [16],Activity [17]
COc1ccc(C(=O)O[C@H]2CC[C@@]3(C)[C@@H]4CC[C@H]5[C@]6(O)C[C@H](O)[C@@]7(O)[C@@H](CN8C[C@@H](C)CC[C@H]8[C@@]7(C)O)[C@]6(O)C[C@@]53O[C@]24O)cc1OC [VERATRIDINE],2.1,–,–,–,–,–,–,–,–,–,–,–,–,–,–,–,–
CC[C@]12CCCN3CC[C@@]4([C@H]5CCCC[C@H]5N[C@H]4[C@@H](C(=O)OC)C1)[C@@H]32.Cl.Cl,3.7,> 10,inactive,inactive,inactive,> 100,inactive,> 10,inactive,inactive,inactive,> 100,> 100,inactive,inactive,inactive,inactive
CC[C@]12CCCN3CC[C@@]4([C@H]5CCCC[C@H]5N[C@H]4[C@@H](C(=O)[O-])C1)[C@@H]32.[Na+],> 10,> 10,inactive,inactive,inactive,> 100,inactive,> 10,inactive,inactive,inactive,> 100,> 100,inactive,inactive,inactive,inactive
